# From patent EP4494649A1, “PEPTIDES FOR USE IN THE TREATMENT OF AXONAL DAMAGE IN DIABETES” (Universität zu Köln, priority 2023, dated 2025)
# What was measured:
# Cdk5-p25 = settings: embryonal neuronal cells; cited from earlier work
# Cdk5-p35 = settings: embryonal neuronal cells; cited from earlier work
# diabetic sciatic nerve [1] = test: Anatomical axon regeneration after sciatic nerve crush (SNC) in streptozotocin-induced T1DM mice; assay type: in vivo; settings: strep-induced T1DM mice, intrathecal injection 1 day prior and on the day of the SNC, 3 dpi
# Protocol: (§1) To model type 1 diabetes mellitus (T1DM), male and female wild-type Ola received a single intraperitoneal injection of 100 mg/kg streptozotocin (strep) or vehicle (veh; 0.1 M citrate buffer, pH 4.5) at 4-6 weeks of age. The efficacy of the treatment was confirmed by assessing blood glucose levels 1 week after injection. Strep mice with over 250 mg/dl of blood glucose were considered diabetic. Thus, diabetes was induced 2 months before sciatic nerve crush.
# All surgical procedures on mice adhered to respective animal care guidelines and were approved by the local authorities (LANUV Recklinghausen). For intrathecal AAV2.1 (CRMP2T514A-HA, GFP, tdTomato, and Cre-GFP: titer: ≥7·1012 vg/ml, Addgene), a 5 mm skin incision was made above the L4-L5 spines. The muscle tissue was carefully spread, and 2.5 µl of the viral solution was injected into the cerebrospinal fluid between the L4 and L5 spines using a Nanoject II injector (Drummond Scientific) with three consecutive 833 nl injections with a speed of 23 nl/s and 20 s intervals between injections. The skin was closed using 6-0 sutures. Transduction was performed 2 weeks before sciatic nerve crush (SNC). SNC was performed as described in Gobrecht et al., Nature Communications 5, 4561 (2014) and Gobrecht et al., (2016). In brief, animals were anesthetized by inhalation anaesthesia with 1.5% isoflurane in oxygen, and a skin incision of 5 mm was made above the gluteal region. […]
# For assessment of anatomical regeneration, the sciatic nerves were isolated 3 days post-injury (dpi). […] Regeneration of sympathetic fibers was quantified with immunostaining against tyrosine hydroxylase (TH; Novus, 1:500; RRID:AB_10077691).
# To verify the regeneration-stimulating effect of the peptide, axonal regeneration was determined in vivo. […] Anatomical regeneration was assessed 3 days post-injury (dpi).
# To verify the regeneration-stimulating effect in vivo, axonal regeneration was determined. […] Anatomical regeneration was assessed 3 days post-injury (dpi).
# CRMP2 = test: Inhibitory CRMP2 phosphorylation (pCRMP2^T514) in DRG of diabetic mice, Western blot and immunostaining; assay type: in vivo
# Protocol: as §1
# The intrathecal application of anti-peptide against CDK5 (AP-CDK5) and P5 was performed with the above-described method to assess anatomical regeneration. […]
# DRG (L3-L5) or 3 mm of the sciatic nerves proximal to the injury site from three mice per group were homogenized by sonication in 100 µl lysis buffer (20 mM Tris-HCl pH 7.5, 10 mM KCl, 250 mM sucrose, 10 mM NaF, 1mM DTT, 0.1 mM Na3VO4, 1% Triton X-100, 0.1% SDS, 1% protease inhibitors (Merck Millipore) and phosphatase inhibitors (Roche)). […] All antibodies were detected with anti-rabbit or anti-mouse IgG secondary antibodies conjugated to HRP (1:80,000; Sigma). […]
# […] Antibodies were detected with anti-rabbit, anti-goat, or anti-mouse secondary antibodies conjugated to Dylight-405,_Alexa-594, or Alexa-488.
# Figure 1H illustrates the timeline of experiments. […] After SNC, SSI and von Frey tests were assessed before the day of SNC, and days 1, 4, 7, 9, 14, 21, 28, and 35 thereafter. […]
# diabetic sciatic nerve [2] = test: Static sciatic index (SSI), functional motor recovery after SNC in diabetic mice; assay type: in vivo
# Protocol: (§2) The intrathecal application of anti-peptide against CDK5 (AP-CDK5) and P5 was performed with the above-described method to assess anatomical regeneration. Either 2 µl AP-CDK5 or P5 (each 4 mg/ml) or vehicle (DMSO) was injected the day before SNC and the day of SNC or the day of SNC and the day after. For analyses of functional recovery, AP-CDKS was injected daily at 400 µg/kg from the day of SNC until the mice were sacrificed. AP-CDKS and P5 (Genescript) were fused to a TAT-sequence for cell membrane penetration and had the following sequence: AP-CDKS: […] and (SEQ ID No. 3) P5: […] (SEQ ID No. 13).
# Motor recovery after SNC was determined by calculating the SSI as described in Baptista AF et al., 2007, J Neurosci Methods 161, 259-264 and Gobrecht et al., Nature Communications 5, 1-10 (2014). […] Toe spreading on contralateral (C, left) and ipsilateral (I, right) sides relative to the SNC was assessed by measuring paw_length (PL) and the_distance between the first and fifth toe (FF). The SSI was then calculated using the previously described formula: SSI = 101.3((IFF-CFF)/CFF)-54.03((IPL-CPL)/CPL)-9.5 in as described in Baptista AF et al., 2007, J Neurosci Methods 161, 259-264.
# Data represent mean SSI±SEM per experimental group. Statistical significances of intergroup differences were evaluated using two-way ANOVA followed by the Holm Sidak post hoc test. […]
# diabetic sciatic nerve [3] = test: von Frey test, functional sensory recovery after SNC in diabetic mice; assay type: in vivo; settings: i.p. daily 400 µg/kg from the day of SNC, Figure 1M
# Protocol: as §2
# Sensory recovery after SNC was determined at the indicated time points after SNC with the von Frey filament test as described in Gobrecht et al., 2014 and Gobrecht et al., (2016). Tests were performed at the same time of day by the same experimenter. Mice were placed on an elevated metal grid (pore size: 2 mm) and allowed to acclimate for 15 min before testing. […] Statistical significances of intergroup differences were evaluated using two-way ANOVA followed by the Holm Sidak post hoc test.
# Figure 1H illustrates the timeline of experiments. […] After SNC, SSI and von Frey tests were assessed before the day of SNC, and days 1, 4, 7, 9, 14, 21, 28, and 35 thereafter.
sequence,measurement,setting,value
KEAFWDRCLSVINLMSSKMLQINA (listed as Homo sapiens) [p5],deregulated Cdk5-p25 activity,Cdk5-p25,inhibited
same,activity of endogenous Cdk5-p35,Cdk5-p35,did not affect
LVESCKEAFWDRCLSVINLMSSKMYARAARRAARR (REGION 1..35: note = Fusion peptide) [AP-CDK5],anatomical regeneration of motor fibers,diabetic sciatic nerve [1]; ChAT staining,accelerated
same,anatomical regeneration of sensory fibers,diabetic sciatic nerve [1]; SCG10 staining,accelerated
same,anatomical regeneration of sympathetic fibers,diabetic sciatic nerve [1]; TH staining,accelerated
same,CRMP2 inactivation in neurons (pCRMP2^T514 immunostaining),"CRMP2; DRG (L6), strep-treated mice, i.p. injection, tissue harvested after completing functional recovery, Figure 1N",strongly reduced
same,CRMP2 inactivation in DRG neurons (pCRMP2^T514 Western blot),"CRMP2; L4-L6 DRG, strep T1DM mice, i.p. every day from the SNC until sacrifice, Figures 1I, 1J",strongly reduced
same,functional motor recovery assessed by static sciatic index (SSI),"diabetic sciatic nerve [2]; i.p. daily 400 µg/kg from the day of SNC, Figure 1L",provide a functional effect
same,axon regeneration (pictures of the injured paw),"diabetic sciatic nerve [2]; i.p. daily from SNC, before and 1, 7, 14, 21, 28, 35 dpi, Figure 1K",accelerated
same,functional sensory recovery determined by the von Frey test,diabetic sciatic nerve [3],provide a functional effect
